Measured values reported in ChEMBL document CHEMBL1201862, “PubChem BioAssay data set” (2004).
Activity calls are given as the source filed them.

Experiments:
[1] = target: T1, Trace amine-associated receptor 1 (Homo sapiens, UniProt Q96RJ0); assay: Fluorescence-based cell-based high throughput dose response assay to identify agonists of the human trace amine associated receptor 1 (TAAR1).; type: functional
T1 sequence (Q96RJ0 whole entry): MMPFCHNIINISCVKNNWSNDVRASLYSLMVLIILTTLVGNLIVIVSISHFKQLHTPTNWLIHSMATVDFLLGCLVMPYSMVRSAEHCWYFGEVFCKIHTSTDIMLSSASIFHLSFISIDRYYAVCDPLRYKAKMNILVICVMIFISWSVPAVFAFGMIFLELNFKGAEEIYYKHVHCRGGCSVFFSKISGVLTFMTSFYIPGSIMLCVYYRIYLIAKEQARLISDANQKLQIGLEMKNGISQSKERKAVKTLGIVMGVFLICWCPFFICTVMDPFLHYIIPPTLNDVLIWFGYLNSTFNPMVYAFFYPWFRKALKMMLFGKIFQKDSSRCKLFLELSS

[2] = target: T1, Trace amine-associated receptor 1; assay: Counterscreen for agonists of the human trace amine associated receptor 1 (hTAAR1): Fluorescence-based cell-based high throughput dose response assay to identify hTAAR1 agonist that also desensitize TAAR1 receptor response.; type: functional
cells [3] = type: functional, cell-based
cells [4] = type: functional, cell-based; remark: listed apart in the source
[5] = target: T2, Oxysterols receptor LXR-beta (Homo sapiens, UniProt P55055); type: functional, cell-based;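 note: agonist activity at LXR measured by a cell-based luminescence readout across a dose range, run as a counterscreen for daf-12 agonists; HEK293 cells with Gal4-LXR fusion and GAL4-driven luciferase reporter; potency for activation of Gal4-LXR reporter so compounds are agonists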
T2 sequence (P55055 whole entry): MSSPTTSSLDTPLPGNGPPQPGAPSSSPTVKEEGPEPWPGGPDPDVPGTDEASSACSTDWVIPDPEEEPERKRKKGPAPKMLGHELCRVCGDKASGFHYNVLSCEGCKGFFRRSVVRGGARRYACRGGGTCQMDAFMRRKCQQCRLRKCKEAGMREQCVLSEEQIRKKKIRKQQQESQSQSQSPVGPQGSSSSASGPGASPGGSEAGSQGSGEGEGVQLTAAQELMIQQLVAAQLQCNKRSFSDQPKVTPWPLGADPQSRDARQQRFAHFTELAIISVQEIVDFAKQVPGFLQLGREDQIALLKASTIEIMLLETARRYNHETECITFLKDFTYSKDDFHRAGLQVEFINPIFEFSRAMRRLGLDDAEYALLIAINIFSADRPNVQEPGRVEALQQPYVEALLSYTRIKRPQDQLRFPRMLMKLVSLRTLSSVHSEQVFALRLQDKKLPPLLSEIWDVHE

[6] = target: T3, DNA repair and recombination protein RAD54-like (Homo sapiens, UniProt Q92698); assay: RAD54 Holliday junction migration blockers – biochemical, fluorescence, cherry-picked samples, dose series, confirmation (AID 651657); type: functional
T3 sequence (Q92698 whole entry): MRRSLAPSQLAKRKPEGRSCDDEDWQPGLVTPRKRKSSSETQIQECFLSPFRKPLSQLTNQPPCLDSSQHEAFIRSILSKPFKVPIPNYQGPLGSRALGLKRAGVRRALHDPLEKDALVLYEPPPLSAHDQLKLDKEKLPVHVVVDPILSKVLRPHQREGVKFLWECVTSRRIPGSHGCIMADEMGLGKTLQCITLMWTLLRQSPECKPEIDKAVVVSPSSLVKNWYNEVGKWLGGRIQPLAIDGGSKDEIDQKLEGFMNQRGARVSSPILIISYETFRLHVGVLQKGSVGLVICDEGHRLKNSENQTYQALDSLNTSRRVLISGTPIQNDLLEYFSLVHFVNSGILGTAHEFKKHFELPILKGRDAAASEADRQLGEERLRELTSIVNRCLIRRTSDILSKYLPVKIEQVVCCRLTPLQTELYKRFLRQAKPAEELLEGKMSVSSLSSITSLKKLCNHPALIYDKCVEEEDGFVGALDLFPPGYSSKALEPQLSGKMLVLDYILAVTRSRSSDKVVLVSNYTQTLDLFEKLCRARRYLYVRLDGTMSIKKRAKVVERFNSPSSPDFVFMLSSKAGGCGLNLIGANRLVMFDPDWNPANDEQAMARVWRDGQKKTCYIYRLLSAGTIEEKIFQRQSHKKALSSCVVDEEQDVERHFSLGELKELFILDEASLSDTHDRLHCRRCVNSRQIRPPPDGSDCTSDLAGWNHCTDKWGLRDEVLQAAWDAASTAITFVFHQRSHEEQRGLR

[7] = target: T4, DNA repair protein RAD52 homolog (Homo sapiens, UniProt P43351); type: functional, biochemical
T4 sequence (P43351 whole entry): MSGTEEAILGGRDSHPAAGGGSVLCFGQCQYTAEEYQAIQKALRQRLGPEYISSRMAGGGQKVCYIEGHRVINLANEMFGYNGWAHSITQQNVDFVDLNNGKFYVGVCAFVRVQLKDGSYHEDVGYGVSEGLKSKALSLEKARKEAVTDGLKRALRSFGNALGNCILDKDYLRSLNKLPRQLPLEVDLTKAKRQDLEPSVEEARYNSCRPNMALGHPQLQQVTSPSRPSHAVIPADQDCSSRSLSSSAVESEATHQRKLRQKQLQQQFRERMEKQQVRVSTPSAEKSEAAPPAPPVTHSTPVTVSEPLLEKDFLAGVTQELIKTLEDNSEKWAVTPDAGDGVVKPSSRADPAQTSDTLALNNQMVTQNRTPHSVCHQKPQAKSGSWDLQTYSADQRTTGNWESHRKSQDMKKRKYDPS

[8] = viability loss in HeLa cells – cytotoxicity control for MgcRacGAP inhibitor project, dose response (AID 624300); type: functional
[9] = target: T5, Rac GTPase-activating protein 1 (Homo sapiens, UniProt Q9H0H5); assay: blockers of MgcRacGAP-driven Rac1 GTP hydrolysis – biochemical, ADP Hunter fluorescence, primary and confirmatory, confirmation (AID 624330); type: functional
T5 sequence (Q9H0H5 whole entry): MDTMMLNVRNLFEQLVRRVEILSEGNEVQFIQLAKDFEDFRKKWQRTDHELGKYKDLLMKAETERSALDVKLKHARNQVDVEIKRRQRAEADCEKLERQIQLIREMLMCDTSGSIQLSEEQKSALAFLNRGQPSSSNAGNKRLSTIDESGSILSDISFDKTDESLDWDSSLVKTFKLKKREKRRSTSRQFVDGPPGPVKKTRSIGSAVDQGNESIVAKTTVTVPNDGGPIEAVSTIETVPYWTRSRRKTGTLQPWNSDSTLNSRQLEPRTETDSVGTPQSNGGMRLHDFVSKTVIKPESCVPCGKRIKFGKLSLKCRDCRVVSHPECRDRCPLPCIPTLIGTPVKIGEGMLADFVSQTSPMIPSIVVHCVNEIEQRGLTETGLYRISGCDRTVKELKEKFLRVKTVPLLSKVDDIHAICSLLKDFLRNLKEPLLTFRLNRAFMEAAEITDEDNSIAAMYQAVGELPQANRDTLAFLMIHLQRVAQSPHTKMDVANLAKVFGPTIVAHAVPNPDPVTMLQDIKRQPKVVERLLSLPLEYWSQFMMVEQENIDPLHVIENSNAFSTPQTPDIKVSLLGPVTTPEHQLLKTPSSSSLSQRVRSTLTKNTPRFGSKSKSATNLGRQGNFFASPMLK

[10] = target: T6, Sentrin-specific protease 8 (Homo sapiens, UniProt Q96LD8); type: functional
T6 sequence (Q96LD8 whole entry): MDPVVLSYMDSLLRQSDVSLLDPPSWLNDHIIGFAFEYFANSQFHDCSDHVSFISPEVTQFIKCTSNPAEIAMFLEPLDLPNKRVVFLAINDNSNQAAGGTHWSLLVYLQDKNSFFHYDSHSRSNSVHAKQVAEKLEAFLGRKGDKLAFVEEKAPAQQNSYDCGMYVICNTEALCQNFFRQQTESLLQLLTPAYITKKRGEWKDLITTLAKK

[11] = target: T6, Sentrin-specific protease 8; type: functional; remark: listed apart in the source
[12] = NIH-3T3 fibroblast cytotoxicity, dose response, cytotoxicity control, cell-based, fluorescence, Alamar Blue, secondary assay (AID 2327); type: functional;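 note: NIH-3T3 mouse fibroblasts cultured with fluconazole at 8 µg/mL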
[13] = fluconazole-exposed Candida albicans growth modulators – fluorescence, retest, confirmation (AID 2467); type: functional, cell-based
[14] = Trypanosoma cruzi growth suppression in host cells – NIH3T3 host cells, beta-gal luminescence, confirmation (AID 2044); type: functional, cell-based;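 note: intracellular parasites grown in NIH/3T3 mouse fibroblasts as host cells; luminescent beta-galactosidase reporter signal from transgenic T. cruzi replicating inside host cells; inhibitors lower the luminescence signal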
[15] = NIH3T3 cell viability loss – ATP luminescence, mouse fibroblasts, counter-screen, dose response (AID 2010); type: functional, cell-based;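 note: cells exposed to compound for about 90 hours before reading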
[16] = target: T7, Heat shock factor protein 1 (Mus musculus, UniProt P38532); assay: enhancement of HSF1-driven luciferase signal – cell-based, NIH3T3, luminescence, dose retest, confirmation (AID 435004); type: functional;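 note: stress induced by proteasome inhibitor MG132 added 30 min after compound; luciferase reporter driven by HSF1 response element in NIH3T3 cells; actives raise luminescence as potentiators of the MG132 stress response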
T7 sequence (P38532 whole entry): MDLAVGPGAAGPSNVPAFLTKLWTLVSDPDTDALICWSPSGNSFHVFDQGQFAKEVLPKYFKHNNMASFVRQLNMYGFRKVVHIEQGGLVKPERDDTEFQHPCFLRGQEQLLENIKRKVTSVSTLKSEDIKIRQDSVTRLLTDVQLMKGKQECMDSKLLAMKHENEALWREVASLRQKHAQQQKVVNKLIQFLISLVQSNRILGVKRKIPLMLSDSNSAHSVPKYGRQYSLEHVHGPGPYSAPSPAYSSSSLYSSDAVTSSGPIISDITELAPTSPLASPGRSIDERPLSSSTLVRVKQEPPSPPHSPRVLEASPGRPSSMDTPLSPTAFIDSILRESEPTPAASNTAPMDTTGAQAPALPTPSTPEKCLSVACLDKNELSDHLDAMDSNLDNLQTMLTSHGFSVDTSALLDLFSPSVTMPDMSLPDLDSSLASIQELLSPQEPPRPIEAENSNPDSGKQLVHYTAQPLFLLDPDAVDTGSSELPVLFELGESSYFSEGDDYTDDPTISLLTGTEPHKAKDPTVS

Leucine aminopeptidase = target: T8, Leucine aminopeptidase (Plasmodium falciparum 3D7, UniProt Q8IL11); assay: P. falciparum M17LAP inhibitors, primary screen, biochemical, fluorogenic H-Leu-NHMec substrate, 1536-well (AID 1619); type: functional
T8 sequence (Q8IL11 whole entry): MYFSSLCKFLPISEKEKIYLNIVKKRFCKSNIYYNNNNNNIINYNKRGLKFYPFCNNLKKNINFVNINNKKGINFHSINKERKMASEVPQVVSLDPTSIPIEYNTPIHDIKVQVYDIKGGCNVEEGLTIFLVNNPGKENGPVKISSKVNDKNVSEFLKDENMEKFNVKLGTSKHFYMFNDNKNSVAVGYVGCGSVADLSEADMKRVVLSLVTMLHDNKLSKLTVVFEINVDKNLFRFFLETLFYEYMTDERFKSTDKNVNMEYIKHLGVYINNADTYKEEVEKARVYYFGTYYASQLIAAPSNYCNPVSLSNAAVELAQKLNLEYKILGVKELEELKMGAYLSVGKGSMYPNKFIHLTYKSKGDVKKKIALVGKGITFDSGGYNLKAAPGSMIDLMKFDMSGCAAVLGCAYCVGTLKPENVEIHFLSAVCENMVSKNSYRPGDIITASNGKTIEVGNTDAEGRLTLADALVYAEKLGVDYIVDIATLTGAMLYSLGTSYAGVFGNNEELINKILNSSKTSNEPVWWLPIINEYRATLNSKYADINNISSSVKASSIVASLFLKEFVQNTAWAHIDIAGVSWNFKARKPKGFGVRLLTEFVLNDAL

Large T antigen = Large T antigen (Simian virus 40, UniProt P03070); type: functional, Betapolyomavirus macacae;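 note: Confirmatory-stage PubChem screen for compounds that inhibit SV40 T antigen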
Sequence of Large T antigen (P03070 whole entry): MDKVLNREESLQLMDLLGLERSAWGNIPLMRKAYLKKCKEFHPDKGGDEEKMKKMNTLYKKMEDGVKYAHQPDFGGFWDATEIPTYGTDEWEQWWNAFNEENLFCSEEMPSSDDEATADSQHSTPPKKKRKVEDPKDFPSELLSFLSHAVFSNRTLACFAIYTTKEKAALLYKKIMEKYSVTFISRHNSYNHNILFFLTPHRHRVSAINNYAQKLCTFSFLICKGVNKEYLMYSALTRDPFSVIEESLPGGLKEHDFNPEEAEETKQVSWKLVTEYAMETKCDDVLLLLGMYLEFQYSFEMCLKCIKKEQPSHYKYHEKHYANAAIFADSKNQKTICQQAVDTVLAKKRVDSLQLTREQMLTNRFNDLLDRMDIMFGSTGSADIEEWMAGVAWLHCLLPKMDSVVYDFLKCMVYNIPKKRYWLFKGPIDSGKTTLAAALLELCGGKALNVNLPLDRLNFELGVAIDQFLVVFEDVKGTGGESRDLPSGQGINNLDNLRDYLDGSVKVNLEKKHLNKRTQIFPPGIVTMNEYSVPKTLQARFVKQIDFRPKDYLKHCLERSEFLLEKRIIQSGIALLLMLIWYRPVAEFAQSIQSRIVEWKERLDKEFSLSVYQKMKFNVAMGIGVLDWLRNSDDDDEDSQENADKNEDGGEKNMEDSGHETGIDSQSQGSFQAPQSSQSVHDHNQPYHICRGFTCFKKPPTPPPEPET

CC(Nc1ccnc2cc(Cl)ccc12)c1ccc(S(N)(=O)=O)cc1 (centres undefined)
EC50 [1]: 14.9 µM (inactive)
IC50 [2]: > 29.9 µM (inactive)
IC50 (cells [3]): > 29.9 µM (inactive)
EC50 (cells [4]): > 29.9 µM (inactive)

Cc1cccn2c(CNCC3OCCc4ccccc43)c(C(=O)N3CCCCC3)nc12 (centres undefined)
EC50 [1]: 4.38 µM (active)
IC50 [2]: 4.82 µM (active)
IC50 (cells [3]): > 29.9 µM (inactive)
EC50 (cells [4]): > 29.9 µM (inactive)

CCCSc1nsc(NC(=O)CC)n1
EC50 [5]: > 67.5 µM (inactive)

CN(C)CCCNc1nc2cc(-c3cccc(Cl)c3)sc2c(=O)n1C
AC50 [6]: 32.9 µM (active)
AC50 [7]: 4.7 µM (active)

OC(CON=C1c2ccccc2-c2ccccc21)CN1CCNCC1 (centres undefined)
CC50 [8]: 100 µM (active)
IC50 [9]: 62.7 µM (active)

Cc1cc(C)n(C(CC(=O)N2CCc3ccccc3C2)C(=O)O)n1 (centres undefined)
EC50 [1]: 1.06 µM (active)
IC50 [10]: 16.5 µM (active)
IC50 [2]: 4.32 µM (active)
IC50 (cells [3]): > 29.9 µM (inactive)
EC50 (cells [4]): > 29.9 µM (inactive)
IC50 [11]: > 100 µM (inactive)

Cc1ccc(-c2onc3ccc(C(=O)O)cc23)cc1
EC50 [5]: > 67.6 µM (inactive)

CCCCCCCCN1C(=O)[C@H](CC(=O)NCCc2ccccc2OC)C[C@@]2(C(=O)OC)CCCCC=C12
EC50 [1]: 7.05 µM (active)
IC50 [2]: 9.43 µM (active)
IC50 (cells [3]): > 29.9 µM (inactive)
EC50 (cells [4]): > 29.9 µM (inactive)

N=C(NOC(=O)N1c2ccccc2Sc2ccccc21)c1ccccc1
EC50 [12]: > 160 µM (inactive)
CC50 [8]: 100 µM (active)
EC50 [13]: 1.22 µM (active)
EC50 [14]: 0.814 µM (active)
EC50 [15]: > 60 µM (not active)

Cc1n[nH]c(-c2ccc(O)c(C)c2O)c1-c1cnn(-c2ccccc2)c1
EC50 [12]: > 160 µM (inconclusive)
EC50 [16]: > 260 µM (inactive)
CC50 [8]: 98.9 µM (active)
EC50 [13]: > 38 µM (not active)
IC50 [9]: 85.8 µM (active)

c1cc2c3c(cccc3c1)C(N1CCCCC1)=N2
AC50 [6]: 34 µM (active)

COc1ccc(Nc2cc(C)nc(N3CCOCC3)n2)cc1
EC50 [1]: 3.33 µM (active)
IC50 [2]: > 29.9 µM (inactive)
IC50 (cells [3]): > 29.9 µM (inactive)
EC50 (cells [4]): > 29.9 µM (inactive)

Cc1cc(C(=O)CSc2ncccn2)c(C)n1Cc1ccco1
EC50 [5]: > 67.5 µM (inactive)

CC(C)C1N=C2c3ccccc3N=C(SCC(=O)c3ccc(O)c(O)c3)N2C1=O (centres undefined)
IC50 (Leucine aminopeptidase): 17.7 µM (active)
CC50 [8]: 100 µM (active)
IC50 (Large T antigen): 21.3 µM (active)
IC50 [9]: 26.1 µM (active)
